This is an account of results in ChEMBL document CHEMBL4052758, “Design, synthesis, biological evaluation and molecular modelling studies of novel diaryl substituted pyrazolyl thiazolidinediones as potent pancreatic lipase inhibitors” (Bioorg Med Chem Lett, 2017).

In data set [1] the target is T1, Pancreatic triacylglycerol lipase (Sus scrofa, UniProt P00591).
T1 sequence (P00591 whole entry): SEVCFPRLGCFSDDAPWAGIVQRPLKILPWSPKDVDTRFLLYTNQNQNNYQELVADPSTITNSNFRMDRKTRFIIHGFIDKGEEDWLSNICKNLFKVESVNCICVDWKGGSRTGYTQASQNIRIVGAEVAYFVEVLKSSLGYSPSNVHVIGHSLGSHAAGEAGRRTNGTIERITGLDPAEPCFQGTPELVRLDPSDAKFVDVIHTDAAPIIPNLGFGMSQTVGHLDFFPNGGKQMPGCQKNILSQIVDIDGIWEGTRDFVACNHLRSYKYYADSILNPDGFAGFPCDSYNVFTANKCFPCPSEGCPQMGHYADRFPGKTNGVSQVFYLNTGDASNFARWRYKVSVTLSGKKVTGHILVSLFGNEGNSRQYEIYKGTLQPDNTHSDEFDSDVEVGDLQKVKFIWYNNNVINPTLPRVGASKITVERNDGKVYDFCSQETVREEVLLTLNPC
The data set can be described thus: Inhibition of porcine pancreatic lipase using p-nitrophenyl butyrate as substrate preincubated for 5 mins followed by substrate addition measured after 5 mins by spectrophotometric analysis.

The species named for the next data set is Sus scrofa. The data set can be described thus: Inhibition of porcine pancreatic lipase type 2 assessed as residual enzyme activity using tributyrin as substrate preincubated for 30 mins followed by substrate addition measured for 5 mins.
The target in data set [2] is T1, Pancreatic triacylglycerol lipase. The data set can be described thus: Binding affinity to porcine pancreatic lipase using p-nitrophenyl butyrate as substrate by dixon plot analysis.
Compound in data set [3]: O=C1S/C(=C\c2cn(-c3ccccc3)nc2-c2ccc(Cl)cc2)C(=O)N1Cc1ccc([N+](=O)[O-])cc1
The data set can be described thus: Reversible competitive inhibition of porcine pancreatic lipase assessed as Km for substrate at 2.5 uM in presence of varying levels of p-nitophenyl butyrate by double reciprocal Lineweaver-burk plot analysis (reference value: 69.32 microM). Particulars: Sus scrofa.

Compound in data set [4]: O=C1S/C(=C\c2cn(-c3ccccc3)nc2-c2ccc(Cl)cc2)C(=O)N1Cc1ccc([N+](=O)[O-])cc1
The data set can be described thus: Reversible competitive inhibition of porcine pancreatic lipase assessed as Vmax for substrate at 5 uM in presence of varying levels of p-nitophenyl butyrate by double reciprocal Lineweaver-burk plot analysis (reference value: 0.0545 microM/min). The note with it: Sus scrofa.

Compound in data set [5]: O=C1S/C(=C\c2cn(-c3ccccc3)nc2-c2ccc(Cl)cc2)C(=O)N1Cc1ccc([N+](=O)[O-])cc1
The data set can be described thus: Reversible competitive inhibition of porcine pancreatic lipase assessed as Vmax for substrate at 10 uM in presence of varying levels of p-nitophenyl butyrate by double reciprocal Lineweaver-burk plot analysis (reference value: 0.0545 microM/min). Particulars: Sus scrofa.

Compound in data set [6]: O=C1S/C(=C\c2cn(-c3ccccc3)nc2-c2ccc(Cl)cc2)C(=O)N1Cc1ccc([N+](=O)[O-])cc1
The data set can be described thus: Reversible competitive inhibition of porcine pancreatic lipase assessed as Vmax for substrate at 2.5 uM in presence of varying levels of p-nitophenyl butyrate by double reciprocal Lineweaver-burk plot analysis (reference value: 0.0545 microM/min). The note with it: Sus scrofa.

Compound in data set [7]: O=C1S/C(=C\c2cn(-c3ccccc3)nc2-c2ccc(Cl)cc2)C(=O)N1Cc1ccc([N+](=O)[O-])cc1
The data set can be described thus: Reversible competitive inhibition of porcine pancreatic lipase assessed as Km for substrate at 10 uM in presence of varying levels of p-nitophenyl butyrate by double reciprocal Lineweaver-burk plot analysis (reference value: 69.32 microM). Particulars: Sus scrofa.

Compound in data set [8]: O=C1S/C(=C\c2cn(-c3ccccc3)nc2-c2ccc(Cl)cc2)C(=O)N1Cc1ccc([N+](=O)[O-])cc1
The data set can be described thus: Reversible competitive inhibition of porcine pancreatic lipase assessed as Km for substrate at 5 uM in presence of varying levels of p-nitophenyl butyrate by double reciprocal Lineweaver-burk plot analysis (reference value: 69.32 microM). Particulars: Sus scrofa.

Consider `O=C1S/C(=C\c2cn(-c3ccccc3)nc2-c2ccccc2)C(=O)N1Cc1ccc([N+](=O)[O-])cc1`, for which, in [1], the IC50 (commonly the concentration that gives 50% inhibition) worked out at 12.5 µM. Further, in the data set listed under Sus scrofa, the XI50 was 21.8.
In the case of `O=C1S/C(=C\c2cn(-c3ccccc3)nc2-c2ccc([N+](=O)[O-])cc2)C(=O)N1Cc1ccc([N+](=O)[O-])cc1`, in data set [1], the IC50 turned out to be 8.44 µM. For the same molecule, the XI50 in the data set listed under Sus scrofa came out at 18.7.
The like results for `O=C1NC(=O)/C(=C/c2cn(-c3ccccc3)nc2-c2ccc([N+](=O)[O-])cc2)S1` were, in that order, 17.3 µM and 39.5.
Molecule `O=C1S/C(=C\c2cn(-c3ccccc3)nc2-c2ccc(Cl)cc2)C(=O)N1Cc1ccc([N+](=O)[O-])cc1` had an IC50 in data set [1] of 4.81 µM. In data set [2], the Ki – broadly, a dissociation constant, usually derived from enzyme kinetics or from competition with a known ligand – was 14.4 µM. Also, in the data set filed under Sus scrofa, the XI50 stood at 10.
`COc1ccc(-c2nn(-c3ccccc3)cc2/C=C2\SC(=O)N(Cc3ccc([N+](=O)[O-])cc3)C2=O)cc1` displayed a half-maximal inhibitory concentration (IC50) in [1] of 9.4 µM. Also, the XI50 in the data set filed under Sus scrofa came out at 18.1.
The like results for `O=C1NC(=O)/C(=C/c2cn(-c3ccccc3)nc2-c2ccc(Cl)cc2)S1` were, in that order, 10.3 µM and 19.3.
The like results for `O=C1NC(=O)/C(=C/c2cn(-c3ccccc3)nc2-c2ccccc2)S1` were, in that order, 18.8 µM and 65.1.
The like results for `Cc1ccc(-c2nn(-c3ccccc3)cc2/C=C2\SC(=O)NC2=O)cc1` were, in that order, 15.1 µM and 27.2.
For `Cc1ccc(-c2nn(-c3ccccc3)cc2/C=C2\SC(=O)N(Cc3ccc([N+](=O)[O-])cc3)C2=O)cc1`, the IC50 in data set [1] was found to be 9.87 µM. Further, the XI50 in the data set listed under Sus scrofa amounted to 19.3.
The matching figures for `O=C1NC(=O)/C(=C/c2cn(-c3ccccc3)nc2-c2ccc(F)cc2)S1`: 12.9 µM and 25.4.
The like results for `COc1ccc(-c2nn(-c3ccccc3)cc2/C=C2\SC(=O)NC2=O)cc1` were, in that order, 13 µM and 24.4.
For `CCCCCCCCCCC[C@@H](C[C@@H]1OC(=O)[C@H]1CCCCCC)OC(=O)[C@H](CC(C)C)NC=O`, in the data set listed under Sus scrofa, the XI50 amounted to 3.72.
Turning to `O=C1S/C(=C\c2cn(-c3ccccc3)nc2-c2ccc(F)cc2)C(=O)N1Cc1ccc([N+](=O)[O-])cc1`, the IC50 in data set [1] stood at 5.42 µM. Besides, the XI50 in the data set listed under Sus scrofa is 13.

B1: Pancreatic triacylglycerol lipase (Sus scrofa), P00591 (protein)
chain: SEVCFPRLGCFSDDAPWAGIVQRPLKILPWSPKDVDTRFLLYTNQNQNNYQELVADPSTITNSNFRMDRKTRFIIHGFIDKGEEDWLSNICKNLFKVESVNCICVDWKGGSRTGYTQASQNIRIVGAEVAYFVEVLKSSLGYSPSNVHVIGHSLGSHAAGEAGRRTNGTIERITGLDPAEPCFQGTPELVRLDPSDAKFVDVIHTDAAPIIPNLGFGMSQTVGHLDFFPNGGKQMPGCQKNILSQIVDIDGIWEGTRDFVACNHLRSYKYYADSILNPDGFAGFPCDSYNVFTANKCFPCPSEGCPQMGHYADRFPGKTNGVSQVFYLNTGDASNFARWRYKVSVTLSGKKVTGHILVSLFGNEGNSRQYEIYKGTLQPDNTHSDEFDSDVEVGDLQKVKFIWYNNNVINPTLPRVGASKITVERNDGKVYDFCSQETVREEVLLTLNPC
Consider B1, for which the Michaelis constant (Km) – broadly, the concentration of substrate that gives half-maximal velocity – in data set [3] is 125 µM; in data set [7], 165 µM; in [8] it was 145 µM. The Vmax (in general, the rate approached at saturating substrate) was found to be 0.0557 µM/min in [4], 0.0566 µM/min in data set [5] and 0.0565 µM/min in data set [6].
